# Measured values from article PMC4027054 (Journal of medicinal chemistry, 2013).
# Entries after “also recorded” stand apart in the source; their conditions may differ.
# Key:
# [1] = tested on: WT HIV-1; format: cell-based; conditions: for antiviral activity in the single replication cycle assay: concentrations up to 10 μM, data not shown
# [2] = tested on: AZT-resistant HIV (D67N/K70R/T215F/K219Q); assay: Single replication cycle antiviral assay, AZT-resistant virus; format: cell-based; conditions: read-out: EC50 AZTr HIV
# [3] = tested on: NNRTI-resistant HIV (L100I/K103N); format: cell-based; conditions: read-out: EC50 NNRTIr HIV
# [4] = biological target: AZT-resistant HIV-1 RT (AZTr) D67N/K70R/T215F/K219Q (Human immunodeficiency virus type 1 group M subtype B, UniProt P03366, D666N/K669R/K818Q/T814F); format: biochemical; conditions: ATP-mediated excision by AZTr RT; chain-terminated primer
# [5] = tested on: HIV-1 IIIB; assay: microbe, parasite or virus in culture; format: cell-based; conditions: Human immunodeficiency virus 1, IIIB, CEM-SS, read-out: Inhibition % @ 10 μM
# [6] = Compound cytotoxicity / cell viability in the cytoprotection assay; format: cell-based; conditions: human, CEM-SS cells
compound,measurement,setting,value
"Cc1cn([C@H]2C[C@H](n3nncc3-c3ccc(-c4ccccc4)cc3)[C@@H](CO)O2)c(=O)[nH]c1=O [Compound 18j, 1-((2R,4S,5S)-4-(5-([1,1’-Biphenyl]-4-yl)-1H-1,2,3-triazol-1-yl)-5-(hydroxymethyl)tetrahydrofuran-2-yl)-5-methylpyrimidine-2,4(1H,3H)-dione]",antiviral activity in the single replication cycle assay,[1],none showed significant antiviral activity
"3’-Azidothymidine [AZT, reference compound]",EC50,"[1]; read-out: Single Replication Cycle Assay EC50, WT HIV, WT HIV-1, P4R5 cells",140 nM
same,EC50,[2],7900 nM
same,EC50,[3],120 nM
same,rate of nucleotide excision of the terminal nucleotide,[4],0.024 min⁻¹
Cc1cn([C@H]2C[C@H](n3nncc3-c3cccc4ccccc34)[C@@H](COP(=O)([O-])OP(=O)([O-])OP(=O)([O-])[O-])O2)c(=O)[nH]c1=O.[Na+].[Na+].[Na+].[Na+] [Compound 21a],rate of nucleotide excision of the terminal nucleotide,[4],0.0126 min⁻¹
"Cc1cn([C@H]2C[C@H](n3nncc3COc3cccc4ccccc34)[C@@H](CO)O2)c(=O)[nH]c1=O [Compound 9c, 1-((2R,4S,5S)-5-(Hydroxymethyl)-4-(5-((naphthalen-1-yloxy)methyl)-1H-1,2,3-triazol-1-yl)tetrahydrofuran-2-yl)-5-methylpyrimidine-2,4(1H,3H)-dione]",antiviral activity in the single replication cycle assay,[1],none showed significant antiviral activity
"Cc1cn([C@H]2C[C@H](n3nncc3C3CCCCC3)[C@@H](CO)O2)c(=O)[nH]c1=O [Compound 18l, 1-((2R,4S,5S)-4-(5-Cyclohexyl-1H-1,2,3-triazol-1-yl)-5-(hydroxymethyl)tetrahydrofuran-2-yl)-5-methylpyrimidine-2,4(1H,3H)-dione]",inhibition at 10 µM,[5],100%
same,"viability at 6 days, 10 µM",[6],100%
same,antiviral activity in the single replication cycle assay,[1],did not produce significant antiviral activity; also recorded: none showed significant antiviral activity
"Cc1cn([C@H]2C[C@H](n3nncc3-c3ccc(Oc4ccccc4)cc3)[C@@H](CO)O2)c(=O)[nH]c1=O [Compound 18i, 1-((2R,4S,5S)-5-(Hydroxymethyl)-4-(5-(4-phenoxyphenyl)-1H-1,2,3-triazol-1-yl)tetrahydrofuran-2-yl)-5-methylpyrimidine-2,4(1H,3H)-dione]",antiviral activity in the single replication cycle assay,[1],none showed significant antiviral activity
"COc1ccc2cc(OCc3cnnn3[C@H]3C[C@H](n4cc(C)c(=O)[nH]c4=O)O[C@@H]3CO)ccc2c1 [Compound 9e, 1-((2R,4S,5S)-5-(Hydroxymethyl)-4-(5-(((6-methoxynaphthalen-2-yl)oxy)methyl)-1H-1,2,3-triazol-1-yl)tetrahydrofuran-2-yl)-5-methylpyrimidine-2,4(1H,3H)-dione]",antiviral activity in the single replication cycle assay,[1],none showed significant antiviral activity
"Cc1cn([C@H]2C[C@H](n3nncc3-c3ccc(Cl)c(Cl)c3)[C@@H](CO)O2)c(=O)[nH]c1=O [Compound 18n, 1-((2R,4S,5S)-4-(5-(3,4-Dichlorophenyl)-1H-1,2,3-triazol-1-yl)-5-(hydroxymethyl)tetrahydrofuran-2-yl)-5-methylpyrimidine-2,4(1H,3H)-dione]",antiviral activity in the single replication cycle assay,[1],none showed significant antiviral activity
